Results from ChEMBL document CHEMBL1136977, “Carbonic anhydrase activators. Activation of the membrane-associated isoform XV with amino acids and amines” (Bioorg Med Chem Lett, 2009).

T1: Carbonic anhydrase 15 (Mus musculus) (UniProt Q99N23)
T1 sequence (whole entry): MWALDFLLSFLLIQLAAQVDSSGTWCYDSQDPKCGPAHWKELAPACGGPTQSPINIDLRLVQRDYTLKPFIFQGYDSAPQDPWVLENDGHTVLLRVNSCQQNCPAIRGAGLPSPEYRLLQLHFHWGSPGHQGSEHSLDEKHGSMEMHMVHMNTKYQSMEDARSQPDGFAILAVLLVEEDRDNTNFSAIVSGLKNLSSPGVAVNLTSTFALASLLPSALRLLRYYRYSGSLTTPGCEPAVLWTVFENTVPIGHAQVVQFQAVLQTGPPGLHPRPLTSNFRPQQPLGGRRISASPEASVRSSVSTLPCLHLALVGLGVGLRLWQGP

B1: Carbonic anhydrase 15 (Mus musculus), Q99N23 (protein)
chain: T1 sequence (whole entry)

Assays:
[1] = molecular target: T1, Carbonic anhydrase 15 (Mus musculus); experiment: Activation of membrane associated mouse recombinant carbonic anhydrase 15 isoform by stopped-flow CO2 hydrase method
[2] = molecular target: Carbonic anhydrase 4 (Homo sapiens) (UniProt P22748); experiment: Activation of human recombinant carbonic anhydrase 4 lacking 20 amino terminal residues by stopped-flow CO2 hydrase method
[3] = substrate: N[C@@H](Cc1c[nH]cn1)C(=O)O; experiment: (§1) Activity of membrane associated mouse recombinant carbonic anhydrase 15 isoform
[4] = substrate: N[C@H](Cc1c[nH]cn1)C(=O)O; experiment: as §1

Carbonic anhydrase 4 (Homo sapiens), sequence (P22748 whole entry, canonical isoform): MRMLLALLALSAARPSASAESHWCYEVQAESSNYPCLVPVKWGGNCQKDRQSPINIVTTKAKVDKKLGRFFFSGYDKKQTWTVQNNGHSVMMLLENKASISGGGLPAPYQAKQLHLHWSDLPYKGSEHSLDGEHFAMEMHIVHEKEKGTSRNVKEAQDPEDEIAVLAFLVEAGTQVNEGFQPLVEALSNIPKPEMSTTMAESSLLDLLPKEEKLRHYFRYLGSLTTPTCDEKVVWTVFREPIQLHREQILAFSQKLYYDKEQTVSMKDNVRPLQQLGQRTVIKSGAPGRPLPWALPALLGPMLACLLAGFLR

Molecule | KA [1] [µM] | KA [2] [µM] | kcat [3] [×10⁵ /s] | kcat [4] [×10⁵ /s]
N[C@@H](Cc1ccc(O)cc1)C(=O)O | 8.9 | 25.1 |  | 
N[C@@H](Cc1c[nH]c2ccccc12)C(=O)O | 13.5 | 37.1 |  | 
NCCc1c[nH]c2ccc(O)cc12 | 7.5 | 3.14 |  | 
N[C@H](Cc1c[nH]cn1)C(=O)O | 14.1 | 12.3 |  | 
N[C@H](Cc1ccc(O)c(O)c1)C(=O)O | 4 | 34.7 |  | 
NCCc1ccccn1 | 11.9 | 7.13 |  | 
NCCN1CCOCC1 | 9.3 | 1.3 |  | 
NCCc1ccc(O)c(O)c1 | 7.1 | 30.9 |  | 
N[C@@H](Cc1c[nH]cn1)C(=O)O | 32.1 | 7.3 |  | 
NCc1ccccn1 | 11.6 | 5.19 |  | 
NCCc1c[nH]cn1 | 18.5 | 25.3 |  | 
Nc1ccc(C[C@H](N)C(=O)O)cc1 | 16.3 | 0.079 |  | 
N[C@H](Cc1c[nH]c2ccccc12)C(=O)O | 8.7 | 39.6 |  | 
NCCN1CCNCC1 | 10.4 | 24.9 |  | 
N[C@@H](Cc1ccc(O)c(O)c1)C(=O)O | 6.5 | 15.3 |  | 
CNC[C@@H](O)c1ccc(O)c(O)c1 | 6.9 | 45 |  | 
B1 |  |  | 8.5 | 15
